Source: ChEMBL document CHEMBL1201861, “Genomics of Drug Sensitity in Cancer screening data, Wellcome Trust Sanger Institute”

Legend:
Experiment in all cases: cells
[1] = tested on: SK-MEL3; assay type: functional, cell-based, Homo sapiens, SK-MEL-3; settings: Homo sapiens, SK-MEL3;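 note: growth inhibition of human SK-MEL-3 cells, read out with a cell viability assay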
Description: SANGER: Inhibition of human SK-MEL-3 cell growth in a cell viability assay.

[2] = tested on: Calu-3; assay type: functional, cell-based, Homo sapiens; settings: Homo sapiens, Calu-3;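 note: growth inhibition of human Calu-3 cells, determined with a cell viability assay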
Description: SANGER: Inhibition of human Calu-3 cell growth in a cell viability assay.

[3] = tested on: SK-MEL-24; assay type: functional, cell-based, Homo sapiens; settings: Homo sapiens, SK-MEL-24;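 note: growth inhibition read out by a cell viability assay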
Description: SANGER: Inhibition of human SK-MEL-24 cell growth in a cell viability assay.

[4] = tested on: NCI-H2342; assay type: functional, cell-based, Homo sapiens; settings: Homo sapiens, NCI-H2342;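 note: growth inhibition of the cancer cell line, determined with a cell viability assay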
Description: SANGER: Inhibition of human NCI-H2342 cell growth in a cell viability assay.

[5] = tested on: SK-N-DZ; assay type: functional, cell-based, Homo sapiens; settings: Homo sapiens, SK-N-DZ;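 note: growth inhibition of the cancer cell line, read out through a viability assay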
Description: SANGER: Inhibition of human SK-N-DZ cell growth in a cell viability assay.

[6] = tested on: LB996-RCC; assay type: functional, cell-based, Homo sapiens; settings: Homo sapiens, LB996-RCC
Description: SANGER: Inhibition of human LB996-RCC cell growth in a cell viability assay.

[7] = tested on: MC116; assay type: functional, cell-based, Homo sapiens; settings: Homo sapiens, MC116;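 note: growth inhibition of MC116 cells, read out with a cell viability assay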
Description: SANGER: Inhibition of human MC116 cell growth in a cell viability assay.

[8] = tested on: UMUC3; assay type: functional, cell-based, Homo sapiens; settings: Homo sapiens, UMUC3;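 note: growth inhibition of human UM-UC-3 cells, read out with a cell viability assay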
Description: SANGER: Inhibition of human UM-UC-3 cell growth in a cell viability assay.

[9] = tested on: DBTRG-05MG; assay type: functional, cell-based, Homo sapiens; settings: Homo sapiens, DBTRG-05MG;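 note: cell viability assay measuring growth inhibition of human DBTRG-05MG cells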
Description: SANGER: Inhibition of human DBTRG-05MG cell growth in a cell viability assay.

[10] = tested on: MZ2-MEL; assay type: functional, cell-based, Homo sapiens; settings: Homo sapiens, MZ2-MEL;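 note: growth inhibition of MZ2-MEL cells read out with a cell viability assay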
Description: SANGER: Inhibition of human MZ2-MEL cell growth in a cell viability assay.

[11] = tested on: NCI-H226; assay type: functional, cell-based, Homo sapiens; settings: Homo sapiens, NCI-H226;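 note: cell viability read-out used to gauge growth inhibition of the cells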
Description: SANGER: Inhibition of human NCI-H226 cell growth in a cell viability assay.

[12] = tested on: A2780; assay type: functional, cell-based, Homo sapiens; settings: Homo sapiens, A2780;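 note: growth inhibition of A2780 cells, read out with a cell viability assay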
Description: SANGER: Inhibition of human A2780 cell growth in a cell viability assay.

[13] = tested on: MRK-nu-1; assay type: functional, cell-based, Homo sapiens; settings: Homo sapiens, MRK-nu-1;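 note: cell viability assay measuring growth suppression of human MRK-nu-1 cells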
Description: SANGER: Inhibition of human MRK-nu-1 cell growth in a cell viability assay.

[14] = tested on: LNCaP-Clone-FGC; assay type: functional, cell-based, Homo sapiens; settings: Homo sapiens, LNCaP-Clone-FGC
Description: SANGER: Inhibition of human LNCaP-Clone-FGC cell growth in a cell viability assay.

[15] = tested on: HCC1569; assay type: functional, cell-based, Homo sapiens; settings: Homo sapiens, HCC1569;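 note: growth inhibition of human HCC1569 cells, read out with a cell viability assay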
Description: SANGER: Inhibition of human HCC1569 cell growth in a cell viability assay.

[16] = tested on: CPC-N; assay type: functional, cell-based, Homo sapiens; settings: Homo sapiens, CPC-N;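 note: growth inhibition of CPC-N cells, with a cell viability assay as the readout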
Description: SANGER: Inhibition of human CPC-N cell growth in a cell viability assay.

[17] = tested on: LXF-289 cell line; assay type: functional, cell-based, Homo sapiens; settings: Homo sapiens, LXF-289
Description: SANGER: Inhibition of human LXF-289 cell growth in a cell viability assay.

[18] = tested on: 639-V; assay type: functional, cell-based, Homo sapiens; settings: Homo sapiens, 639-V;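 note: growth inhibition of 639-V cells, read out with a cell viability assay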
Description: SANGER: Inhibition of human 639-V cell growth in a cell viability assay.

[19] = tested on: NCI-H716; assay type: functional, cell-based, Homo sapiens; settings: Homo sapiens, NCI-H716;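 note: growth inhibition of human NCI-H716 cells, measured by a cell viability assay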
Description: SANGER: Inhibition of human NCI-H716 cell growth in a cell viability assay.

[20] = tested on: HSC-2; assay type: functional, cell-based, Homo sapiens; settings: Homo sapiens, HSC-2;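 note: growth inhibition of human HSC-2 cells, read out by a cell viability assay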
Description: SANGER: Inhibition of human HSC-2 cell growth in a cell viability assay.

[21] = tested on: HCE-4; assay type: functional, cell-based, Homo sapiens; settings: Homo sapiens, HCE-4;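 note: cell viability assay measuring inhibition of growth in the human HCE-4 cell line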
Description: SANGER: Inhibition of human HCE-4 cell growth in a cell viability assay.

[22] = tested on: A-375; assay type: functional, cell-based, Homo sapiens; settings: Homo sapiens, A-375;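 note: growth inhibition of A375 cells, read out with a cell viability assay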
Description: SANGER: Inhibition of human A375 cell growth in a cell viability assay.

[23] = tested on: MHH-ES-1; assay type: functional, cell-based, Homo sapiens; settings: Homo sapiens, MHH-ES-1;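 note: cell growth inhibition measured by a cell viability assay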
Description: SANGER: Inhibition of human MHH-ES-1 cell growth in a cell viability assay.

[24] = tested on: HT-1376; assay type: functional, cell-based, Homo sapiens; settings: Homo sapiens, HT-1376
Description: SANGER: Inhibition of human HT-1376 cell growth in a cell viability assay.

[25] = tested on: THP-1; assay type: functional, cell-based, Homo sapiens; settings: Homo sapiens, THP-1;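 note: growth inhibition of THP-1 cells, read out via a cell viability assay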
Description: SANGER: Inhibition of human THP-1 cell growth in a cell viability assay.

[26] = tested on: CWR22R; assay type: functional, cell-based, Homo sapiens; settings: Homo sapiens, 22Rv1;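 note: growth inhibition of 22Rv1 cells, read out with a cell viability assay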
Description: SANGER: Inhibition of human 22RV1 cell growth in a cell viability assay.

[27] = tested on: CAL-62; assay type: functional, cell-based, Homo sapiens; settings: Homo sapiens, CAL-62;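 note: growth inhibition of CAL-62 cells, read out with a cell viability assay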
Description: SANGER: Inhibition of human CAL-62 cell growth in a cell viability assay.

[28] = tested on: KU812 cell line; assay type: functional, cell-based, Homo sapiens; settings: Homo sapiens, KU812;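 note: growth inhibition of KU812 cells, read out with a cell viability assay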
Description: SANGER: Inhibition of human KU812 cell growth in a cell viability assay.

[29] = tested on: PANC-03-27; assay type: functional, cell-based, Homo sapiens; settings: Homo sapiens, PANC-03-27
Description: SANGER: Inhibition of human PANC-03-27 cell growth in a cell viability assay.

[30] = tested on: DMS-273; assay type: functional, cell-based, Homo sapiens; settings: Homo sapiens, DMS-273
Description: SANGER: Inhibition of human DMS-273 cell growth in a cell viability assay.

[31] = tested on: MSTO-211H; assay type: functional, cell-based, Homo sapiens; settings: Homo sapiens, MSTO-211H
Description: SANGER: Inhibition of human MSTO-211H cell growth in a cell viability assay.

[32] = tested on: OVCAR-8; assay type: functional, cell-based, Homo sapiens; settings: Homo sapiens, OVCAR-8;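 note: growth inhibition of human OVCAR-8 cells, read out by a cell viability assay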
Description: SANGER: Inhibition of human OVCAR-8 cell growth in a cell viability assay.

[33] = tested on: Detroit 562; assay type: functional, cell-based, Homo sapiens; settings: Homo sapiens, Detroit 562;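 note: growth inhibition of human Detroit 562 cells, read out by a cell viability assay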
Description: SANGER: Inhibition of human Detroit562 cell growth in a cell viability assay.

[34] = tested on: LS-411N; assay type: functional, cell-based, Homo sapiens; settings: Homo sapiens, LS-411N
[35] = tested on: D-542MG; assay type: functional, cell-based, Homo sapiens; settings: Homo sapiens, D-542MG
Description: SANGER: Inhibition of human D-542MG cell growth in a cell viability assay.

[36] = tested on: KOSC-2; assay type: functional, cell-based, Homo sapiens; settings: Homo sapiens, KOSC-2;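 note: growth inhibition of KOSC-2 cells, read out by a cell viability assay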
Description: SANGER: Inhibition of human KOSC-2 cell growth in a cell viability assay.

[37] = tested on: MPP-89; assay type: functional, cell-based, Homo sapiens; settings: Homo sapiens, MPP-89;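 note: growth inhibition of human MPP-89 cells, read out with a cell viability assay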
Description: SANGER: Inhibition of human MPP-89 cell growth in a cell viability assay.

[38] = tested on: SJRH30; assay type: functional, cell-based, Homo sapiens; settings: Homo sapiens, SJRH30;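 note: growth inhibition of human SJRH30 cells, read out with a cell viability assay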
Description: SANGER: Inhibition of human SJRH30 cell growth in a cell viability assay.

[39] = tested on: OS-RC-2; assay type: functional, cell-based, Homo sapiens; settings: Homo sapiens, OS-RC-2;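 note: growth inhibition of human OS-RC-2 cells, measured by a cell viability assay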
Description: SANGER: Inhibition of human OS-RC-2 cell growth in a cell viability assay.

[40] = tested on: HT-3; assay type: functional, cell-based, Homo sapiens; settings: Homo sapiens, HT-3;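 note: growth inhibition measured with a cell viability readout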
Description: SANGER: Inhibition of human HT-3 cell growth in a cell viability assay.

[41] = tested on: NCI-H2087; assay type: functional, cell-based, Homo sapiens; settings: Homo sapiens, NCI-H2087;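 note: growth inhibition determined with a cell viability readout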
Description: SANGER: Inhibition of human NCI-H2087 cell growth in a cell viability assay.

[42] = tested on: NCI-H1581; assay type: functional, cell-based, Homo sapiens; settings: Homo sapiens, NCI-H1581;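 note: cell growth inhibition read out by a viability assay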
Description: SANGER: Inhibition of human NCI-H1581 cell growth in a cell viability assay.

[43] = tested on: OE19; assay type: functional, cell-based, Homo sapiens; settings: Homo sapiens, OE19;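 note: growth inhibition of OE19 cells, measured through a cell viability read-out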
Description: SANGER: Inhibition of human OE19 cell growth in a cell viability assay.

[44] = tested on: VMRC-RCZ; assay type: functional, cell-based, Homo sapiens; settings: Homo sapiens, VMRC-RCZ;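 note: growth inhibition measured with a cell viability assay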
Description: SANGER: Inhibition of human VMRC-RCZ cell growth in a cell viability assay.

[45] = tested on: HOS; assay type: functional, cell-based, Homo sapiens; settings: Homo sapiens, HOS;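 note: growth inhibition of human HOS cells, read out with a cell viability assay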
Description: SANGER: Inhibition of human HOS cell growth in a cell viability assay.

[46] = tested on: NCI-H720; assay type: functional, cell-based, Homo sapiens; settings: Homo sapiens, NCI-H720;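 note: growth inhibition of human NCI-H720 cells determined by a cell viability assay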
Description: SANGER: Inhibition of human NCI-H720 cell growth in a cell viability assay.

[47] = tested on: ME-180; assay type: functional, cell-based, Homo sapiens; settings: Homo sapiens, ME-180;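 note: cell viability assay measuring growth inhibition of ME-180 cells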
Description: SANGER: Inhibition of human ME-180 cell growth in a cell viability assay.

Measured: IC50

Oc1ccc2ccccc2c1SSc1c(O)ccc2ccccc12
14.1 µM: [44]
12.6 µM: [11]
28.4 µM: [12]
2.76 µM: [28]
9.2 µM: [5]
4.5 µM: [45]
27.2 µM: [35]
> 32 µM: all other assays above

COc1cc2ncn(-c3cc(OCc4ccccc4S(C)(=O)=O)c(C#N)s3)c2cc1OC [GSK-319347A]
> 5 µM: [5] | [6] | [7] | [10] | [11] | [13] | [14] | [16] | [17] | [19] | [25] | [28] | [31] | [34] | [35] | [37] | [39] | [42] | [46]

COc1cc(N2CCN(C)CC2)ccc1Nc1ncc2c(n1)N(C)c1ccccc1C(=O)N2C
2 µM: [35]
7.05 µM: [34]
4.5 µM: [37]
7.43 µM: [28]
7.22 µM: [7]
5.37 µM: [6]
> 8 µM: [5] | [10] | [11] | [13] | [14] | [16] | [17] | [19] | [25] | [31] | [39] | [42] | [46]
